Reference: patent publication US20230371511A1, “MIXTURES CONTAINING CYCLOBUTRIFLURAM” (BASF SE, priority 2020, published 2023)

What was measured:
Type in all cases: cell-based
Settings in all cases: single active, 7 days after inoculation
Septoria tritici = assay: Microtest: activity against leaf blotch on wheat caused by Septoria tritici (MTP growth, 405 nm)
Method: (§1) The active compounds were formulated separately as a stock solution having a concentration of 10000 ppm in dimethyl sulfoxide.
(§2) The stock solutions were mixed according to the ratio, pipetted onto a micro titer plate (MTP) and diluted with water to the stated concentrations. A spore suspension of Septoria tritici in an aqueous biomalt or yeast-bactopeptone-glycerine or DOB solution was then added. The plates were placed in a water vapor-saturated chamber at a temperature of 18° C. Using an absorption photometer, the MTPs were measured at 405 nm 7 days after the inoculation.
(§3) The measured parameters were compared to the growth of the active compound-free control variant (100%) and the fungus-free blank value to determine the relative growth in % of the pathogens in the respective active compounds.
(§4) These percentages were converted into efficacies.
(§5) An efficacy of 0 means that the growth level of the pathogens corresponds to that of the untreated control; an efficacy of 100 means that the pathogens were not growing.
(§6) The expected efficacies of active compound mixtures were determined using Colby's formula [R. S. Colby, “Calculating synergistic and antagonistic responses of herbicide combinations”, Weeds 15, 20-22 (1967)] and compared with the observed efficacies.

Alternaria solani = assay: Microtest: activity against early blight caused by Alternaria solani (MTP growth, 405 nm)
Excerpt: as §1, §3, §4
as §2, with “Alternaria solani” for “Septoria tritici”
as §5, §6

Rhizoctonia solani = assay: Microtest: activity against Rhizoctonia solani (MTP growth, 405 nm)
Method: as §1
as §2, with “Rhizoctonia solani” for “Septoria tritici”, “COB” for “DOB”, “[…].” for “18° C.”
as §3, §4, §5, §6

[1] = test system: Colletotrichum orbiculare; assay: Microtest: activity against anthracnose caused by Colletotrichum orbiculare (MTP growth, 405 nm)
Excerpt: as §1, §3, §4
as §2, with “Colletotrichum orbiculare” for “Septoria tritici”, “bio malt” for “biomalt or yeast-bactopeptone-glycerine or DOB”
as §5, §6

Cercospora sojina = assay: Microtest: activity against Cercospora sojina (MTP growth, 405 nm)
Method: as §1
as §2, with “Cercospora sojina” for “Septoria tritici”, “COB” for “DOB”
as §3, §4, §5, §6

[2] = 0.25 ppm, 0 = growth as untreated control, 100 = no growth

COCC(=O)N(c1c(C)cccc1C)[C@H](C)C(=O)OC [Mefenoxam, mefenoxam]
Observed efficacy (Septoria tritici; 0.063 ppm): 6
Observed efficacy (Septoria tritici; 1 ppm): 4
Observed efficacy (Septoria tritici; 4 ppm): 2

Cn1nnnc1/C(=N\OCc1cccc(NC(=O)OC(C)(C)C)n1)c1ccccc1 [Picarbutrazox, picarbutrazox]
Observed efficacy (Alternaria solani; 0.063 ppm): 8

O=C(NC1CCC1c1ccc(Cl)cc1Cl)c1cccnc1C(F)(F)F (stereo in doubt) [Cyclobutrifluram, cyclobutrifluram]
Observed efficacy (Rhizoctonia solani; 1 ppm): 0
Observed efficacy (Alternaria solani; 0.004 ppm): 40
Observed efficacy (Alternaria solani; 0.016 ppm): 74
Observed efficacy ([1]; 1 ppm): 1
Observed efficacy (Cercospora sojina; 0.016 ppm): 18
Observed efficacy (Septoria tritici; 0.063 ppm): 0
Observed efficacy (Septoria tritici; [2]): 7

CON(C(=O)c1cn(C)nc1C(F)F)C(C)Cc1c(Cl)cc(Cl)cc1Cl (stereo not drawn) [Pydiflumetofen, pydiflumetofen]
Observed efficacy (Cercospora sojina; 0.00025 ppm): 9
Observed efficacy (Septoria tritici; 0.004 ppm): 5
Observed efficacy (Septoria tritici; 0.016 ppm): 23

Cc1cc(C(F)(F)F)nn1CC(=O)N1CCC(c2nc(C3=NOC(c4c(F)cccc4F)C3)cs2)CC1 (stereo not drawn) [Oxathiapirolin, oxathiapiprolin]
Observed efficacy (Alternaria solani; 0.063 ppm): 0

CC(O)(Cn1cncn1)c1ccc(Oc2ccc(Cl)cc2)cc1C(F)(F)F (stereo not drawn) [Mefentrifluconazol, mefentrifluconazole]
Observed efficacy (Septoria tritici; 0 ppm (so in the source)): 68
Observed efficacy (Septoria tritici; 0.063 ppm): 61
Observed efficacy (Septoria tritici; [2]): 70

Cn1cc(C(=O)Nc2ccccc2-c2cc(F)c(F)c(F)c2)c(C(F)F)n1 [Fluxapyroxad, fluxapyroxad]
Observed efficacy (Rhizoctonia solani; 0.25 ppm): 46

Cc1nc2c(F)c(F)ccc2cc1Oc1cccc(F)c1C(C)(C)O [Ipflufenoquin, ipflufenoquin]
Observed efficacy (Alternaria solani; 0.004 ppm): 9
Observed efficacy ([1]; 0.25 ppm): 25
